We go through twelve compounds from patent publication US12264185B2, “Stabilized BCL9 peptides for treatment of aberrant Wnt signaling” (WntRx Pharmaceuticals Inc., priority 2015, dated 2025).

pIC50: −log10 of the molar value. “And” between values parts separate entries of the source, which are not always exact repeats. Identical values can stand only once. Like-named read-outs stand apart in the source and are kept apart here. Bridge positions count the residues as written; N and C are the ends. Square brackets hold non-standard residues; d marks the D form. Peptide text beside a SMILES is read from it. 2Nal = N[C@@H](Cc1ccc2ccccc2c1)C(=O)O; R5 = C=CCCC[C@@](C)(N)C(=O)O; S5 = C=CCCC[C@](C)(N)C(=O)O; βAla = NCCC(=O)O Where only a bound is given, the exact number is not on record here.

The nature of one series: FIG. 10B. To be noted: for MRTINF | hr: in vivo. The protocol: Each data point represents N=2. Mice were administered 5 mg/kg, 10 mg/kg, or 15 mg/kg intravenously, 5 mg/kg intramuscularly, 10 mg/kg intraperitoneally, or 10 mg/kg subcutaneously.
The nature of the next series: FIG. 9B. The source says: Table printed on a drawing sheet, FIG. 9B
First reader's note: Plasma PK parameters derived from the concentration-time curves plotted in FIG. 9A on the same sheet.

For another series, the system named is Colo320DM cells. As to the kind of experiment: cells. The protocol: Colo320DM cells were selected for this assay as the proliferation of this particular cell line is dependent on BCL9 and β-catenin. ICG001, a known Wnt/β-catenin small molecule inhibitor, was used as a positive control. The cell viability at each treatment condition was analyzed using CellTiterGlo luminescent cell viability assay (Promega) according to the manufacturer's protocols.
Following the procedure described in Example 2, the ability of WX-035 to inhibit cell growth was tested in a cell viability assay using Colo320DM cells.

The test system of the next series is HCT116 cells. The class given is cell-based. Particulars: HCT116 cells, CellTiterGlo. The procedure:
The additional polypeptides were tested in a CellTiterGlo luminescent cell viability assay (Promega). ICG001 was used as a positive control in this assay.

A further series concerns Wnt/β-catenin signaling. As to the kind of experiment: GeneBLAzer beta-lactamase Wnt transcription reporter assay, LEF/TCF-bla HCT-116 cells. The class given is cell-based. To be noted: for pIC50: LEF/TCF-bla HCT-116 cells. The source says:
ICG001 was used as a comparison. The GeneBLAzer uses CellSensor™ LEF/TCF-bla HCT-116 cells that contain a beta-lactamase (BLA) reporter gene under the control of the β-catenin/LEF/TCF response element stably integrated into HCT-116 cells, as shown in FIG. 5A. These cells constitutively express beta-lactamase and can be used to detect agonists and antagonists of the Wnt/β-catenin signaling pathway. The GeneBLAzer assay provides a ratiometric reporter response involving a two-color (blue/green) readout of stimulated and unstimulated cells.
LEF/TCF-bla HCT-116 cells were plated in assay medium (Invitrogen) on clear-bottom plates and incubated overnight at 37° C. […] Cells were next incubated with the Wnt agonist, mWnt3a (provided in the GeneBLAzer kit) for 5 hours at 37° C. Substrate mixture (containing LiveBLAzer™ B/G substrate that employs CCF4-AM, a FRET substrate for beta-lactamase) was added to the wells, and the plate was incubated for 2.5 hours at room temperature in the dark. Black-walled, clear-bottom, 384-well plates (Corning Costar) were used with scanning done with a Spectramax M2. Plates were scanned first (Scan 1 in the blue channel) with excitation filter 409/20 nm and emission filter 460/40 nm. Plates were then scanned (Scan 2 in the green channel) with excitation filer 409/20 nm and emission filter 530/30 nm.
In general terms: In a reporter assay the amount or activity of a reporter protein is the signal.

The subject of a further series is CT26.WT cells. It counts as cell-based. The procedure: One of the stabilized polypeptides generated in Example 10 was tested in a cell viability assay and compared against WX-035. WX-037 was selected for this comparison study. The cell viability assay was performed with CT26.WT cells (ATCC), following the procedures described in Example 2. Briefly, 4000 cells per well of each plate were seeded with 50 μL opti-MEM medium. Each polypeptide, WX-035 or WX-037, was diluted with 2% FBS containing opti-MEM medium using 1 μL of 200× concentrated polypeptide in 99 μL of the medium. Each stock solution was diluted for testing a wide range of concentrations. 50 μL of 2× concentrated polypeptide was added to each well of the plate. Three days after the polypeptide addition, the viability of cells was measured using CellTiterGlo assay, according to the manufacturer's protocol.

Another series relates to CT26 cells. As to the kind of experiment: cells. Particulars: Mus musculus, CT26, read-out: IC50, CT26 cell growth. The protocol: CT26 cells were grown in F-bottom plates over 5 days. […] CellTiterGlo (Promega) cell viability assay. […] Doxorubicin is a known inhibitor of cell growth and was included as a control.
The mark [1] stands for this setting: read-out: IC50, Wnt transcription.

On to `CC[C@H](C)[C@@H]1NC(=O)[C@@](C)(NC(=O)[C@H](CCCNC(=N)N)NC(=O)[C@H](CC(C)C)NC(=O)[C@@H](NC(=O)[C@H](CCC(N)=O)NC(=O)[C@H](CC(C)C)NC(C)=O)[C@@H](C)O)CCCC=CCCC[C@@](C)(C(=O)N[C@@H](CC(C)C)C(=O)N[C@@H](Cc2ccc3ccccc3c2)C(N)=O)NC(=O)[C@H](CCCNC(=N)N)NC(=O)[C@H](CCC(N)=O)NC1=O` (single isomer, unassigned) [WX-024 5mg/kg, IV], for which, in “FIG. 10B”, the “AUCINF |” value was found to be 136 µg·h/mL, the “AUClast |” value worked out at 136 µg·h/mL, the “CL | L/hr/kg” value is 0.0368 L/h/kg and the “CL | mL/min/kg” value is 0.613 mL/min/kg. Moreover, in “FIG. 10B”, the “VSS |” value is given as 0.0693 L/kg. Also, the MRT in “FIG. 10B” (female, Balb/c, mouse, blood, iv) is 1.88 h. Besides, the half-life in the series “FIG. 10B” (female, Balb/c, mouse, blood, iv, read-out: TERMINAL t1/2 | hr (converted)) was 1.99 h.
With `CC[C@H](C)[C@@H]1NC(=O)[C@@](C)(NC(=O)[C@H](CCCNC(=N)N)NC(=O)[C@H](CC(C)C)NC(=O)[C@@H](NC(=O)[C@H](CCC(N)=O)NC(=O)[C@H](CC(C)C)NC(C)=O)[C@@H](C)O)CCCC=CCCC[C@@](C)(C(=O)N[C@@H](CC(C)C)C(=O)N[C@@H](Cc2ccc3ccccc3c2)C(N)=O)NC(=O)[C@H](CCCNC(=N)N)NC(=O)[C@H](CCC(N)=O)NC1=O` (single isomer, unassigned) [WX-024 10mg/kg, IV], in the series “FIG. 10B”, the “AUCINF |” value amounted to 233 µg·h/mL, the “AUClast |” value came out at 233 µg·h/mL, the “CL | L/hr/kg” value amounted to 0.0428 L/h/kg and the “CL | mL/min/kg” value was determined as 0.713 mL/min/kg. Further, the “VSS |” value in “FIG. 10B” came to 0.0788 L/kg. The “MRTINF | hr” value in the series “FIG. 10B” (mouse, iv) was 1.84 h.
In the case of `CC[C@H](C)[C@@H]1NC(=O)[C@@](C)(NC(=O)[C@H](CCCNC(=N)N)NC(=O)[C@H](CC(C)C)NC(=O)[C@@H](NC(=O)[C@H](CCC(N)=O)NC(=O)[C@H](CC(C)C)NC(C)=O)[C@@H](C)O)CCCC=CCCC[C@@](C)(C(=O)N[C@@H](CC(C)C)C(=O)N[C@@H](Cc2ccc3ccccc3c2)C(N)=O)NC(=O)[C@H](CCCNC(=N)N)NC(=O)[C@H](CCC(N)=O)NC1=O` (single isomer, unassigned) [WX-024 15mg/kg, IV], in “FIG. 10B”, the “AUCINF |” value was found to be 260 µg·h/mL, the “AUClast |” value worked out at 260 µg·h/mL, the “CL | L/hr/kg” value came to 0.0576 L/h/kg and the “CL | mL/min/kg” value was determined as 0.96 mL/min/kg. Besides, the “VSS |” value in the series “FIG. 10B” is 0.0946 L/kg. For the same compound, the “MRTINF | hr” value in “FIG. 10B” (mouse, iv) was 1.64 h.
As for `CC[C@H](C)[C@@H]1NC(=O)[C@@](C)(NC(=O)[C@H](CCCNC(=N)N)NC(=O)[C@H](CC(C)C)NC(=O)[C@@H](NC(=O)[C@H](CCC(N)=O)NC(=O)[C@H](CC(C)C)NC(C)=O)[C@@H](C)O)CCCC=CCCC[C@@](C)(C(=O)N[C@@H](CC(C)C)C(=O)N[C@@H](Cc2ccc3ccccc3c2)C(N)=O)NC(=O)[C@H](CCCNC(=N)N)NC(=O)[C@H](CCC(N)=O)NC1=O` (single isomer, unassigned) [WX-024, LQTLRXaa1IQRXaa2L], in the series “FIG. 9B”, the “T1/2 | hr” value was 2.44 h and 2.59 h and 2.51 h.
For `O=c1[nH]cc(F)c(=O)[nH]1` [5-FU, 5-fluorouracil, reference compound], the pIC50 in the series on Colo320DM cells (Homo sapiens, COLO 320DM, read-out: IC50, cell viability) is 4.92.
`O=C1[C@H](Cc2ccc(O)cc2)N2C(=O)CCN(C(=O)NCc3ccccc3)[C@H]2CN1Cc1cccc2ccccc12` [ICG001, reference compound]: the “effect on cell viability / cell growth” value in the series with Colo320DM cells (Colo320DM cells) is “capable of inducing cell death in a dose dependent manner”. Moreover, the pIC50 with HCT116 cells (read-out: IC50, cell viability) is 5.66; in the series on Wnt/β-catenin signaling (setting [1]), 5.97.
As for `Cc1cc(-c2ncc(CC(=O)Nc3ccc(-c4cnccn4)cn3)cc2C)ccn1` [LGK-974, reference compound], the pIC50 in the series with Wnt/β-catenin signaling (Homo sapiens, read-out: IC50, Wnt/β-catenin transcription) was below 5.00.
As to `CC[C@H](C)[C@@H]1NC(=O)[C@@](C)(NC(=O)[C@H](CCCNC(=N)N)NC(=O)[C@H](CC(C)C)NC(C)=O)CCCC=CCCC[C@@](C)(C(=O)N[C@@H](CC(C)C)C(N)=O)NC(=O)[C@H](CCCNC(=N)N)NC(=O)[C@H](CCC(N)=O)NC1=O` [WX-020, LRXaa1IQRXaa2L] (Ac-LR[S5]IQR[S5]L-NH2; staple 3-7), the pIC50 is 4.91 in the series with Colo320DM cells and 5.80 with Wnt/β-catenin signaling (setting [1]). The “inhibition of Wnt transcription among domain mapping polypeptides” value in the series on Wnt/β-catenin signaling (HCT116 cells) was “most effective polypeptide in inhibiting the Wnt transcription”.
`CC(=O)N[C@]1(C)CCCC=CCCC[C@@](C)(C(=O)N[C@@H](CC(=O)O)C(=O)N[C@@H](CCCNC(=N)N)C(=O)N[C@@]2(C)CCCC=CCCC[C@@](C)(C(=O)N[C@@H](CC(=O)O)C(=O)N[C@@H](Cc3c[nH]cn3)C(=O)NCCC(=O)NCCC(N)=O)NC(=O)[C@H](CCCNC(=N)N)NC(=O)[C@H](CCC(N)=O)NC(=O)[C@H](CC(=O)O)NC2=O)NC(=O)[C@H](CCC(N)=O)NC(=O)[C@H](CC(=O)O)NC1=O` [WX-037, Xaa1DQXaa2DRXaa3DQRXaa4DH] (Ac-[R5]DQ[S5]DR[S5]DQR[S5]DH[βAla][βAla]-NH2; staple 1-4, 7-11) gave a pIC50 with CT26.WT cells below 4.49.
As to `COc1cccc2c1C(=O)c1c(O)c3c(c(O)c1C2=O)C[C@@](O)(C(=O)CO)C[C@@H]3O[C@H]1C[C@H](N)[C@H](O)[C@H](C)O1` [doxorubicin], in the series with CT26 cells, the pIC50 is 5.12.
Take `C#Cc1cccc(Nc2ncnc3cc(OCCOC)c(OCCOC)cc23)c1` [erlotinib]: the pIC50 in the series with CT26 cells is below 5.70.
As for “stapled, Ac N-terminus, C-terminus 2-Nal-β-Ala-β-Ala-NH2 (Ac-LR[S5]IQR[S5]L[2Nal][βAla][βAla]-NH2; staple 3-7; SMILES CC[C@H](C)[C@@H]1NC(=O)[C@@](C)(NC(=O)[C@H](CCCNC(=N)N)NC(=O)[C@H](CC(C)C)NC(C)=O)CCCC=CCCC[C@@](C)(C(=O)N[C@@H](CC(C)C)C(=O)N[C@@H](Cc2ccc3ccccc3c2)C(=O)NCCC(=O)NCCC(N)=O)NC(=O)[C@H](CCCNC(=N)N)NC(=O)[C@H](CCC(N)=O)NC1=O) [WX-021, LRXaa1IQRXaa2L]”, the “inhibition of cell growth” value with HCT116 cells is “particularly effective”. Moreover, the pIC50 with Wnt/β-catenin signaling (setting [1]) was 6.12.

By MRT is commonly meant a mean duration of stay, worked out from the concentration-time curve.
